Reference: ChEMBL document CHEMBL5050844 (2019)

Key:
[1] = Induction of anti-CD3 antibodies-stimulated human T cell activation at 8 uM assessed fold increase in CD25 expression measured by ELISA assay; type: functional, T cell line
[2] = Induction of anti-CD3 antibodies-stimulated human T cell activation at 1 uM assessed fold increase in CD25 expression measured by ELISA assay; type: functional, T cell line
[3] = Induction of anti-CD3/CD28 antibodies-stimulated human T cell activation at 1 uM assessed fold increase in CD25 expression measured by ELISA assay; type: functional, T cell line
[4] = Induction of activation of human CD56+ CD3- NK cells co-cultured with human K562 cells in 5:1 ratio and assessed as increase in IFN-gamma secretion at 10 uM measured by ELISA assay; type: functional, Natural killer cell
[5] = Induction of activation of human CD56+ CD3- NK cells co-cultured with human K562 cells in 5:1 ratio and assessed as increase in TNF-alpha secretion at 1 uM measured by ELISA assay; type: functional, Natural killer cell
[6] = Induction of anti-CD3 antibodies-stimulated human T cell activation at 8 uM assessed fold increase in IL-2 secretion measured by ELISA assay; type: functional, T cell line
[7] = Induction of activation of human CD56+ CD3- NK cells co-cultured with human K562 cells in 5:1 ratio and assessed as increase in MIP1beta secretion at 1 uM measured by ELISA assay; type: functional, Natural killer cell
[8] = Induction of activation of human CD56+ CD3- NK cells co-cultured with human K562 cells in 1:1 ratio and assessed as increase in MIP1beta secretion at 1 uM measured by ELISA assay; type: functional, Natural killer cell
[9] = Induction of activation of human CD56+ CD3- NK cells co-cultured with human K562 cells in 1:1 ratio and assessed as increase in IFN-gamma secretion at 1 uM measured by ELISA assay; type: functional, Natural killer cell
[10] = Induction of activation of human CD56+ CD3- NK cells co-cultured with human K562 cells in 1:1 ratio and assessed as increase in MIP1beta secretion at 10 uM measured by ELISA assay; type: functional, Natural killer cell
[11] = Induction of anti-CD3 antibodies-stimulated human T cell activation at 1 uM assessed fold increase in IL-2 secretion measured by ELISA assay; type: functional, T cell line
[12] = Induction of activation of human CD56+ CD3- NK cells co-cultured with human K562 cells in 5:1 ratio and assessed as increase in MIP1beta secretion at 10 uM measured by ELISA assay; type: functional, Natural killer cell
[13] = Induction of anti-CD3/CD28 antibodies-stimulated human T cell activation at 4 uM assessed fold increase in CD25 expression measured by ELISA assay; type: functional, T cell line
[14] = Induction of activation of human CD56+ CD3- NK cells co-cultured with human K562 cells in 5:1 ratio and assessed as increase in TNF-alpha secretion at 10 uM measured by ELISA assay; type: functional, Natural killer cell
[15] = Induction of activation of human CD56+ CD3- NK cells co-cultured with human K562 cells in 1:1 ratio and assessed as increase in TNF-alpha secretion at 1 uM measured by ELISA assay; type: functional, Natural killer cell
[16] = Induction of anti-CD3/CD28 antibodies-stimulated human T cell activation at 4 uM assessed fold increase in IL-2 secretion measured by ELISA assay; type: functional, T cell line
[17] = Induction of activation of human CD56+ CD3- NK cells co-cultured with human K562 cells in 1:1 ratio and assessed as increase in TNF-alpha secretion at 10 uM measured by ELISA assay; type: functional, Natural killer cell
[18] = Induction of anti-CD3 antibodies-stimulated human CD8+ T cell activation in immunocompetent mouse assessed fold increase in CD25 expression at 90 mg/kg, ip administered twice a day; type: functional
[19] = Induction of anti-CD3/CD28 antibodies-stimulated human T cell activation at 0.3 uM assessed fold increase in CD25 expression measured by ELISA assay; type: functional, T cell line
[20] = Induction of activation of human CD56+ CD3- NK cells co-cultured with human K562 cells in 5:1 ratio and assessed as increase in IFN-gamma secretion at 1 uM measured by ELISA assay; type: functional, Natural killer cell
[21] = Induction of activation of human CD56+ CD3- NK cells co-cultured with human K562 cells in 1:1 ratio and assessed as increase in IFN-gamma secretion at 10 uM measured by ELISA assay; type: functional, Natural killer cell
[22] = Induction of anti-CD3 antibodies-stimulated human CD4+ T cell activation in immunocompetent mouse assessed fold increase in CD25 expression at 90 mg/kg, ip administered twice a day; type: functional
[23] = Induction of anti-CD3/CD28 antibodies-stimulated human T cell activation at 0.3 uM assessed fold increase in IL-2 secretion measured by ELISA assay; type: functional, T cell line
[24] = Induction of anti-CD3/CD28 antibodies-stimulated human T cell activation at 1 uM assessed fold increase in IL-2 secretion measured by ELISA assay; type: functional, T cell line
[25] = system: B cell; assay: Induction of anti-IgM-stimulated human CD20+ B cell activation at 10 to 1000 uM assessed as increase in CD69 expression measured as mean fluorescence intensity AUC by flow cytometry analysis; type: functional, cell-based; conditions: dose 10-1000 µM
[26] = Induction of anti-CD3 antibodies-stimulated human exhausted T cell activation assessed fold increase in GM-CSF secretion measured by ELISA assay; type: functional, T cell line
[27] = Induction of anti-CD3 antibodies-stimulated human exhausted CD8+ T cell activation assessed fold increase in CTLA4 expression measured by flow cytometry analysis; type: functional, T cell line
[28] = Induction of activation of human CD56+ CD3- NK cells co-cultured with human K562 cells in 1:1 ratio and assessed as increase in TNF-alpha secretion at 2.5 uM measured by ELISA assay; type: functional, Natural killer cell
[29] = Induction of anti-CD3/CD28 antibodies-stimulated human anergic T cell activation at 1.11 uM assessed fold increase in IFN-gamma secretion measured by ELISA assay; type: functional, T cell line
[30] = Induction of allogenic human T cell activation at 3 uM assessed fold increase in cell proliferation; type: functional, T cell line
[31] = Induction of anti-CD3 antibodies-stimulated human CD8+ T cell activation in immunocompetent mouse assessed fold increase in CD25 expression at 135 mg/kg, po administered twice a day; type: functional
[32] = Induction of anti-CD3 antibodies-stimulated human CD8+ T cell activation in immunocompetent mouse assessed fold increase in CD25 expression at 180 mg/kg, po administered twice a day; type: functional
[33] = Induction of anti-CD3/CD28 antibodies-stimulated human anergic T cell activation at 0.37 uM assessed fold increase in IFN-gamma secretion measured by ELISA assay; type: functional, T cell line
[34] = Induction of anti-CD3 antibodies-stimulated human CD8+ T cell activation in immunocompetent mouse assessed fold increase in CD25 expression at 45 mg/kg, po administered twice a day; type: functional
[35] = Induction of activation of human CD56+ CD3- NK cells co-cultured with human K562 cells in 1:1 ratio and assessed as increase in IFN-gamma secretion at 0.625 uM measured by ELISA assay; type: functional, Natural killer cell
[36] = Induction of anti-CD3 antibodies-stimulated human exhausted CD4+ T cell activation assessed fold increase in CTLA4 expression measured by flow cytometry analysis; type: functional, T cell line
[37] = molecular target: E3 ubiquitin-protein ligase CBL-B (Homo sapiens, UniProt Q13191); assay: Inhibition of N-terminal Avi-tagged human CBL-B (36 to 427 residues) incubated with 60 nM Src kinase for 1.5 hrs followed by incubation with fluorescently labeled UbcH5B-Ub for 1 hr and measured by TR-FRET assay; type: single protein
Chain of E3 ubiquitin-protein ligase CBL-B (Q13191 whole entry, the tested form may be a part): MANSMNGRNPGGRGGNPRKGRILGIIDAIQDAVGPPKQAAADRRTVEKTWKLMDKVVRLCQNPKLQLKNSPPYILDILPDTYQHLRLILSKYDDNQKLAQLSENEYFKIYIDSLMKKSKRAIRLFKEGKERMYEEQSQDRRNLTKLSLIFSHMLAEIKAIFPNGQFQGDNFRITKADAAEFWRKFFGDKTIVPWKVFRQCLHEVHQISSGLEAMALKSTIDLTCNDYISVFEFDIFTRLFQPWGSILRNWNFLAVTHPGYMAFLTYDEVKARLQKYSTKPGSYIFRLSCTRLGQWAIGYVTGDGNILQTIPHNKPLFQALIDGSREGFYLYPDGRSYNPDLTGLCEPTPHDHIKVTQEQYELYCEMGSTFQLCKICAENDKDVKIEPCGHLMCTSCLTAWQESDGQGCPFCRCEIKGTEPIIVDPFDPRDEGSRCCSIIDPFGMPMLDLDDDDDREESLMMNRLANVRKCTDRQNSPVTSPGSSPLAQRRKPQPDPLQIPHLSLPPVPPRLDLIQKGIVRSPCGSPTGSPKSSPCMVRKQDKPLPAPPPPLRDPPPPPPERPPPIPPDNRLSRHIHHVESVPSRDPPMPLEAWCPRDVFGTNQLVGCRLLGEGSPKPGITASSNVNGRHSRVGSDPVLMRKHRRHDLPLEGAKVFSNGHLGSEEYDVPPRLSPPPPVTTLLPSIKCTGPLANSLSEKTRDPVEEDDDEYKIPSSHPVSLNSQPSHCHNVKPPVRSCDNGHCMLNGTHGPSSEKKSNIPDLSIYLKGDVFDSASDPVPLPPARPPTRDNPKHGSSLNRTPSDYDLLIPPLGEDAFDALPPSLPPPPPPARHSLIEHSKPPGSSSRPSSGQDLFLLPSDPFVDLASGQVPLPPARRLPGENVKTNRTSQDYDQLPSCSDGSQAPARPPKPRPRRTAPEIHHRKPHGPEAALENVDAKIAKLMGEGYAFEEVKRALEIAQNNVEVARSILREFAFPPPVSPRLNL

[38] = Induction of anti-CD3/CD28 antibodies-stimulated human anergic T cell activation at 10 uM assessed fold increase in IFN-gamma secretion measured by ELISA assay; type: functional, T cell line
[39] = Induction of anti-CD3 antibodies-stimulated human exhausted T cell activation assessed fold increase in IL-2 secretion measured by ELISA assay; type: functional, T cell line
[40] = Induction of anti-CD3 antibodies-stimulated human CD4+ T cell activation in immunocompetent mouse assessed fold increase in CD25 expression at 90 mg/kg, po administered twice a day; type: functional
[41] = Induction of activation of human CD56+ CD3- NK cells co-cultured with human K562 cells in 1:1 ratio and assessed as increase in IFN-gamma secretion at 2.5 uM measured by ELISA assay; type: functional, Natural killer cell
[42] = Induction of allogenic human T cell activation at 10 uM assessed fold increase in cell proliferation; type: functional, T cell line
[43] = Induction of anti-CD3 antibodies-stimulated human CD4+ T cell activation in immunocompetent mouse assessed fold increase in CD25 expression at 180 mg/kg, po administered twice a day; type: functional
[44] = Induction of anti-CD3 antibodies-stimulated human exhausted T cell activation assessed fold increase in IFN-gamma secretion measured by ELISA assay; type: functional, T cell line
[45] = Induction of activation of human CD56+ CD3- NK cells co-cultured with human K562 cells in 1:1 ratio and assessed as increase in TNF-alpha secretion at 0.625 uM measured by ELISA assay; type: functional, Natural killer cell
[46] = Induction of anti-CD3 antibodies-stimulated human CD8+ T cell activation in immunocompetent mouse assessed fold increase in CD25 expression at 90 mg/kg, ip administered thrice a day; type: functional

C[C@H](Cc1nncn1C)c1cccc(NC(=O)c2ccnc(C(F)(F)F)n2)c1
fold change (FC) [1]: >=1.001 | fold change (FC) [2]: 0.801 | fold change (FC) [3]: >=1.76 | fold change (FC) [4]: >=5 | fold change (FC) [5]: 2.01 | fold change (FC) [6]: >=0.201 | fold change (FC) [7]: 1.01 | fold change (FC) [8]: 1.01 | fold change (FC) [9]: 1.01 | fold change (FC) [10]: 2.01 | fold change (FC) [11]: >=0.201 | fold change (FC) [12]: 2.01 | fold change (FC) [13]: >=1.76 | fold change (FC) [14]: >=5 | fold change (FC) [15]: <=1 | fold change (FC) [16]: >=7.5 | fold change (FC) [17]: 2.01 | fold change (FC) [18]: 1 | fold change (FC) [19]: 1.51 | fold change (FC) [20]: 2.01 | fold change (FC) [21]: 2.01 | fold change (FC) [22]: 1.51 | fold change (FC) [23]: 1.01 | fold change (FC) [24]: 2.51

Cn1cnnc1CC1(c2cccc(NC(=O)c3cc(CN4CCC5(CC5)C4)cc(C4CC4)n3)c2)COC1
AUC [25]: > 1.51 | fold change (FC) [26]: >1.61 | fold change (FC) [2]: >=1.001 | fold change (FC) [27]: >1.61 | fold change (FC) [28]: 1.01 | fold change (FC) [29]: >4.01 | fold change (FC) [3]: 1.31 | fold change (FC) [30]: >3 | fold change (FC) [31]: 1 | fold change (FC) [32]: 1.51 | fold change (FC) [33]: >4.01 | fold change (FC) [34]: 1 | fold change (FC) [35]: 2.01 | fold change (FC) [11]: >=0.201 | fold change (FC) [36]: >1.61 | IC50 [37]: < 100 nM | fold change (FC) [17]: >=5 | fold change (FC) [38]: >4.01 | fold change (FC) [39]: 2.51 | fold change (FC) [19]: 1.31 | fold change (FC) [21]: >=5 | fold change (FC) [22]: 1.51 | fold change (FC) [40]: >2.5 | fold change (FC) [41]: >=5 | fold change (FC) [42]: >3 | fold change (FC) [43]: >2.5 | fold change (FC) [44]: >1.61 | fold change (FC) [45]: >=5 | fold change (FC) [23]: >=7.5 | fold change (FC) [46]: 1 | fold change (FC) [24]: >=7.5
